Test results as given in patent US4775674A, “Imidazoquinolinylether derivatives useful as phosphodiesterase and blood aggregation inhibitors” (Bristol-Myers Company, priority 1986, dated 1988).
Values after ≈ are worked out from the molar mass of the structure shown. Read-outs that look alike come from different tables or passages of the source.

Columns and labels:
[1] = tested on: ferrets (right ventricular contractile force, blood pressure); experiment: In vivo inotropic activity in ferrets; parameters: species or system ferret; details: Mustela putorius, 1 h, intraduodenal
Procedure: This test is carried out in ferrets as follows. Fasted anesthetized ferrets are instrumented to study hemodynamic parameters as well as right ventricular contractile force (RVCF) using a Walton-Brodie open strain guage arch. Drugs are administered intraduodenally as solutions in DMSO (1 mL or less) and effects on myocardial contractile force and other parameters are monitored for 60 minutes after dosing. Changes in contractile force in response to drug treatment are expressed in terms of percent change from predose control.

[2] = tested on: platelet aggregation (Ex Vivo vs. ADP); experiment: Inhibition of platelet aggregation following oral administration (Ex vivo); format: in vivo; details: Rattus norvegicus, rats, oral by gavage, 2 hours after dosing
Procedure: This test is sometimes referred to in the art as an Ex vivo method and was initially described by Fleming, et al., Arch. Int. Pharmacodyn. Ther., 199, 164 (1972). Briefly, the assay is essentially carried out as follows.
Aggregometry is performed in vitro as previously described on platelet rich plasma samples obtained from rats dosed with either test compounds or the vehicle. In all cases, activity is determined 2 hours after the drug is administered orally at various doses by gavage as a suspension in […] plus a few drops of Tween 20.

[3] = tested on: adenosine diphosphate (ADP)-induced platelet aggregation; experiment: In vitro inhibition of platelet aggregation, ADP-induced (rabbit platelet rich plasma); format: cell-based; details: Oryctolagus cuniculus, ADP 0.5 mcg/ml, read-out: Platelet Inhibition In Vitro - Rabbit PRP EC50 vs. ADP
Procedure: (§1) The aggregometer method of Born (1), as modified by Mustard, et al. (2) was used to assess the in vitro activity of the various compounds as to inhibition of adenosine diphosphate (ADP) and collagen-induced platelet aggregation. Platelet rich plasma (PRP) was separated by centrifugation from citrated (3.8 percent) rabbit blood. […] The various compounds tested were dissolved in dimethylsulfoxide (DMSO) so that 5 mcl added to the platelet rich plasma would yield the desired test concentration. Vehicle control trials were done and compared with aggregation induced in platelet rich plasma containing various concentrations of the test compounds. Dose response curves were obtained and Effective Concentration (EC50) values calculated.

[4] = tested on: collagen-induced platelet aggregation; experiment: In vitro inhibition of platelet aggregation, collagen-induced (rabbit platelet rich plasma); format: cell-based; details: Oryctolagus cuniculus, collagen suspension 0.05 ml, read-out: Platelet Inhibition In Vitro - Rabbit PRP EC50 vs. collagen
Procedure: as §1

[5] = target: T1, cAMP phosphodiesterase (human platelets) (Homo sapiens, UniProt Q14432); experiment: Inhibition of cyclic AMP phosphodiesterase; format: biochemical; details: PDE from human platelets
T1 construct: enzynme obtained from human platelets; from tissue; host or cells: human platelets
Procedure: This assay is carried out essentially as described by Thompson, et al., Methods in Enzymology, 38, 205-212 (1974). Briefly, tritium labeled cyclic adenosine monophosphate (cAMP) is incubated with a phosphodiesterase (PDE) enzynme obtained from human platelets which converts a portion of the cAMP to 5'AMP in culture tubes. This reaction is terminated by submerging the tubes in a boiling water bath after which they are placed on ice and an aliquot of snake venom is added to each tube. This, during a second incubation, converts the 5'AMP to adenosine. Ion exchange resin is added to bind the remaining cyclic AMP. The tubes are centrifuged to sediment the resin and a portion of the clear supernatent (which contains radioactive adenosine) is counted in a liquid scintillation counter. The cAMP phosphodiesterase inhibition activity of a test agent is determined by pre-incubating the PDE enzyme preparation with the test agent.

[6] = anesthetized ferret, 3 mg/kg, 60 minutes, vs predose control, read-out: Maximum Percentage Change Right Ventricular Contractile Force (RVCF)
[7] = anesthetized ferret, 3 mg/kg, 60 minutes, read-out: Maximum Percentage Change Blood Pressure

T1 sequence (Q14432 whole entry): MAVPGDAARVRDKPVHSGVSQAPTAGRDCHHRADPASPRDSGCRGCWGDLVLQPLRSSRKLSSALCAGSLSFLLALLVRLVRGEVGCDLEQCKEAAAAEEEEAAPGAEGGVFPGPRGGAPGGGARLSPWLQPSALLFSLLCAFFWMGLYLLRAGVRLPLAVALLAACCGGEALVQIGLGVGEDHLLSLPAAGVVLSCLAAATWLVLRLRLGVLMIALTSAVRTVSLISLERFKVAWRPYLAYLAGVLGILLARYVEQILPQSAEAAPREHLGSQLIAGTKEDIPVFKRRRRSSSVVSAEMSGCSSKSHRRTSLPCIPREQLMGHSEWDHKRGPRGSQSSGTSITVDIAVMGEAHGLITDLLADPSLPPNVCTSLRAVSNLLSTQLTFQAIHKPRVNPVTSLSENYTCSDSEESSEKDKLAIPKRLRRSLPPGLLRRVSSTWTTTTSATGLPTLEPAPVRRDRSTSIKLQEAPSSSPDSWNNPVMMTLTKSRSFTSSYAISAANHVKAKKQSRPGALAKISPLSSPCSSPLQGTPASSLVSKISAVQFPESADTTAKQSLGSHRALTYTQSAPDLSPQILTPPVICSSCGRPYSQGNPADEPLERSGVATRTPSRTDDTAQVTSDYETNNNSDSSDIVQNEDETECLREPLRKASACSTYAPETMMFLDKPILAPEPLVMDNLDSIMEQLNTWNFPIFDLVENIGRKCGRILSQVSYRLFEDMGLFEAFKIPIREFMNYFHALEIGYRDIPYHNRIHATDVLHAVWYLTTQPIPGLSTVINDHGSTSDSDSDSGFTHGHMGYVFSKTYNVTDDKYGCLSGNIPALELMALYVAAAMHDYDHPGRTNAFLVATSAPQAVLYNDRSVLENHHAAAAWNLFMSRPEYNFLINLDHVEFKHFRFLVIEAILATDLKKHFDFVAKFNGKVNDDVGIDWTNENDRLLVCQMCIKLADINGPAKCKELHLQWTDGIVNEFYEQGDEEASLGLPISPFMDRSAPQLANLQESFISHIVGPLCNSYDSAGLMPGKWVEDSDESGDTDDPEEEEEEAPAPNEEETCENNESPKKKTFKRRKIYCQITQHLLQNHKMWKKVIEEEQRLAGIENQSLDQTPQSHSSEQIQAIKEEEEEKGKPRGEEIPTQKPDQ

`O=C(O)CCCOc1ccc2nc3[nH]c(=O)[nH]c3cc2c1` [Example 4, 4-[(2,3-Dihydro-2-oxo-1H-imidazo[4,5-b]quinolin-7-yl)oxy]butanoic Acid] showed a change in vivo at 3 mg/kg [1, 6] of 3 ± 5%, a change in vivo at 3 mg/kg [1, 7] of -3 ± 2% and an ED50 [2] of 3.4 mg/kg.

`Cn1c(=O)[nH]c2nc3ccc(OCCCC(=O)O)cc3cc21` [Example 6, 4-[(2,3-Dihydro-1-methyl-2-oxo-1H-imidazo[4,5-b]quinolin-7-yl)oxy]butanoic Acid] showed an EC50 [3] greater than 32 µg/mL, an EC50 [4] greater than 32 µg/mL and an IC50 [5] of 0.6 µM.

Compound `O=C(O)COc1ccc2[nH]c3nc(O)nc-3cc2c1` [Example 7, 2-[(1,3-Dihydro-2-oxo-2H-imidazo[4,5-b]quinolin-7-yl)oxy]acetic Acid] has an IC50 [5] of 0.07 µM.

`O=C(O)CCCCOc1ccc2nc3[nH]c(=O)[nH]c3cc2c1` [Example 8, 5-[(2,3-Dihydro-2-oxo-1H-imidazo[4,5-b]quinolin-7-yl)oxy]pentanoic Acid] was tested, and the EC50 [3] was greater than 32 µg/mL and the EC50 [4] was greater than 32 µg/mL.

`Cn1c(O)nc2nc3ccc(OCCCCC(=O)O)cc3cc21` [Example 9, 5-[(2,3-Dihydro-1-methyl-2-oxo-1H-imidazo[4,5-b]quinolin-7-yl)oxy]pentanoicAcid] was tested, and the EC50 [3] was greater than 32 µg/mL, the EC50 [4] was greater than 32 µg/mL and the IC50 [5] was 0.8 µM.

In the case of `COC(=O)CCCOc1ccc2nc3[nH]c(=O)n(C)c3cc2c1` [Example 11, Methyl 4-[(2,3-Dihydro-1-methyl-2-oxo-1H-imidazo[4,5-b]quinolin-7-yl)oxy]butanoat], the change in vivo at 3 mg/kg [1, 6] is reported as -10%, the change in vivo at 3 mg/kg [1, 7] is reported as -4% and the ED50 [2] is reported as 15.7 mg/kg.

`CCOC(=O)COc1ccc2nc3[nH]c(=O)[nH]c3cc2c1` [Example 12, Ethyl [(2,3-Dihydro-2-oxo-1H-imidazo[4,5-b]quinolin-7-yl)oxy]acetate] showed an EC50 [3] of 8 µg/mL (≈ 27.8 µM) and an EC50 [4] of 2.5 µg/mL (≈ 8.7 µM).

`COC(=O)CCCCOc1ccc2nc3[nH]c(=O)[nH]c3cc2c1` [Example 13, Methyl 5-[(2,3-Dihydro-2-oxo-1H-imidazo[4,5-b]quinolin-7-yl)oxy]pentanoate] showed an EC50 [3] of 0.3 µg/mL (≈ 0.951 µM).

With `COC(=O)CCCCOc1ccc2nc3nc(O)n(C)c3cc2c1` [Example 14, Methyl 5-[(2,3-Dihydro-1-methyl-2-oxo 1H-imidazo[4,5-b]quinolin-7-yl)oxy]pentanoate] the EC50 [3] was 3 µg/mL (≈ 9.11 µM) and the IC50 [5] was 5 µM.

In the case of `O=C(CCCOc1ccc2nc3[nH]c(=O)[nH]c3cc2c1)N1CCOCC1` [Example 15], the change in vivo at 3 mg/kg [1, 6] is reported as 2%, the change in vivo at 3 mg/kg [1, 7] is reported as -5% and the EC50 [4] is reported as 0.007 µg/mL (≈ 0.0196 µM).

Compound `O=C(CCCOc1ccc2nc3[nH]c(=O)[nH]c3cc2c1)NC1CCCCC1` [Example 18, N-Cyclohexyl-4-[(2,3-dihydro-2-oxo-1H-imidazo[4,5-b]quinolin-7-yl)oxy]butanamide] has a change in vivo at 3 mg/kg [1, 6] of 5%, a change in vivo at 3 mg/kg [1, 7] of -8% and an EC50 [3] of 0.015 µg/mL (≈ 0.0407 µM). The EC50 [4] was 0.0025 µg/mL (≈ 0.00679 µM).

`CN(C(=O)CCCOc1ccc2nc3[nH]c(=O)[nH]c3cc2c1)C1CCCCCC1` [Example 22, N-Cycloheptyl-N-methyl-4-[(2,3-dihydro-2-oxo-1H-imidazo[4,5-b]quinolin-7-yl)oxy]butanamide] was tested, and the change in vivo at 0.3 mg/kg ([1]; anesthetized ferret, 60 minutes, vs predose control, read-out: Maximum Percentage Change Right Ventricular Contractile Force (RVCF)) was 29 ± 5%, the change in vivo at 0.3 mg/kg ([1]; anesthetized ferret, 60 minutes, read-out: Maximum Percentage Change Blood Pressure) was -26 ± 4% and the EC50 [3] was 0.007 µg/mL (≈ 0.0177 µM). The EC50 [4] was 0.002 µg/mL (≈ 0.00504 µM) and the ED50 [2] was 6.2 mg/kg.

For `CN(C(=O)CCCOc1ccc2nc3nc(O)n(C)c3cc2c1)C1CCCCCC1` [Example 23, N-Cycloheptyl-4-[(2,3-dihydro-1-methyl-2-oxo-1H-imidazo[4,5-b]quinolin-7-yl)oxy]-N-methylbutanamide], the change in vivo at 3 mg/kg [1, 6] was 24%, the change in vivo at 3 mg/kg [1, 7] was -16% and the EC50 [3] was 0.03 µg/mL (≈ 0.0731 µM). For the same compound, the EC50 [4] was 0.005 µg/mL (≈ 0.0122 µM) and the IC50 [5] was 30 µM.

`O=C(CCCOc1ccc2nc3[nH]c(=O)[nH]c3cc2c1)N1CCCCC1` [Example 24, 1-[4-[(2,3-Dihydro-2-oxo-1H-imidazo[4,5-b]quinolin-7-yl)oxy]-1-oxobutyl]piperidine] gave a change in vivo at 3 mg/kg [1, 6] of 32%, a change in vivo at 3 mg/kg [1, 7] of -19% and an EC50 [3] of 0.04 µg/mL (≈ 0.113 µM). The IC50 [5] was 0.02 µM.

`Cn1c(=O)[nH]c2nc3ccc(OCCCC(=O)N4CCCCC4)cc3cc21` [Example 25, 1-[4-[(2,3-Dihydro-1-methyl-2-oxo-1H-imidazo[4,5-b]quinolin-7-yl)oxy]-1-oxobutyl]piperidine] was tested, and the EC50 [3] was 4 µg/mL (≈ 10.9 µM) and the EC50 [4] was 0.8 µg/mL (≈ 2.17 µM).

With `O=C(CCCOc1ccc2nc3[nH]c(=O)[nH]c3cc2c1)N1CCN(c2ccccc2)CC1` [Example 26, 1-[4-[(2,3-Dihydro-2-oxo-1H-imidazo[4,5-b]quinolin-7-yl)oxy]-1-oxobutyl]-4-phenylpiperazine] the EC50 [3] was 0.125 µg/mL (≈ 0.29 µM), the EC50 [4] was 0.009 µg/mL (≈ 0.0209 µM) and the IC50 [5] was 0.002 µM.

For `CN(C(=O)CCCCOc1ccc2nc3nc(O)n(C)c3cc2c1)C1CCCCC1` [Example 27, N-Cyclohexyl-5-[(2,3-dihydro-1-methyl-2-oxo-1H-imidazo[4,5-b]quinolin-7-yl)oxy]N-methylpentanamide], the change in vivo at 3 mg/kg [1, 6] was 35%, the change in vivo at 3 mg/kg [1, 7] was -24% and the EC50 [3] was 0.06 µg/mL (≈ 0.146 µM). For the same compound, the IC50 [5] was 0.5 µM.

`CN(C(=O)CCCCOc1ccc2nc3[nH]c(=O)n(C)c3cc2c1)C1CCCCCC1` [Example 28, N-Cycloheptyl-5-[(2,3-dihydro-1-methyl-2-oxo-1H-imidazo[4,5-b]quinolin-7-yl)oxy]-N-methylpentanamide] was tested, and the change in vivo at 3 mg/kg [1, 6] was 27%, the change in vivo at 3 mg/kg [1, 7] was -12% and the EC50 [3] was 0.06 µg/mL (≈ 0.141 µM). The IC50 [5] was 0.6 µM.

`CCN(CC)CCOc1ccc2nc3[nH]c(=O)[nH]c3cc2c1` [Example 34, 7-[(2-Diethylamino)ethoxy]-1,3-dihydro-2H-imidazo[4,5-b]quinolin-2-one] gave an EC50 [3] of 1.5 µg/mL (≈ 4.99 µM) and an EC50 [4] of 0.4 µg/mL (≈ 1.33 µM).

In the case of `O=c1[nH]c2cc3cc(OCCCCS(=O)(=O)c4ccccc4)ccc3nc2[nH]1` [Example 35, 7-[4-(Phenylsulfonyl)butoxy]-1,3-dihydro-2H-imidazo[4,5-b]quinolin-2-one], the change in vivo at 3 mg/kg [1, 6] is reported as 11 ± 5%, the change in vivo at 3 mg/kg [1, 7] is reported as -10 ± 8% and the EC50 [3] is reported as 0.07 µg/mL (≈ 0.176 µM). The IC50 [5] was 0.001 µM and the ED50 [2] was 4.3 mg/kg.

`Oc1nc2cc3cc(OCCCCc4nnnn4C4CCCCC4)ccc3[nH]c-2n1` [Example 36, 7-[4-(1-Cyclohexyl-1H-tetrazol-5-yl)butoxy]-1,3-dihydro-2H-imidazo[4,5-b]quinolin-2-one] gave an EC50 [4] of 0.02 µg/mL (≈ 0.0491 µM) and an IC50 [5] of 0.004 µM.

Compound `CC(C)N1CC(COc2ccc3nc4[nH]c(=O)[nH]c4cc3c2)OC1=O` (stereo not drawn) [Example 41, 1,3-Dihydro-7-[[3-(1-methylethyl)-2-oxo-5-oxazolidinyl]methoxy]-2H-imidazo[4,5-b]quinolin-2-one] has an EC50 [3] of 3 µg/mL (≈ 8.76 µM), an EC50 [4] of 7 µg/mL (≈ 20.4 µM) and an IC50 [5] of 0.06 µM.

Compound `CC(C)(C)N1CC(COc2ccc3nc4[nH]c(=O)[nH]c4cc3c2)OC1=O` (stereo not drawn) [Example 42, 7-[[3-(1,1-Dimethylethyl)-2-oxooxazolidin-5-yl]methoxy]-1H-imidazo[4,5-b]quinolin-2(3H)-one] has an EC50 [3] of 6 µg/mL (≈ 16.8 µM), an EC50 [4] of 0.4 µg/mL (≈ 1.12 µM) and an IC50 [5] of 0.07 µM.

`CC(C)NCC(O)COc1ccc2nc3[nH]c(=O)[nH]c3cc2c1` (stereo not drawn) [Example 43, 1,3-Dihydro-7-[2-hydroxy-3-[(1-methylethyl)amino]propoxy]-2H-imidazo[4,5-b]quinolin-2-one] showed an EC50 [3] greater than 32 µg/mL, an EC50 [4] greater than 32 µg/mL and an IC50 [5] of 0.3 µM.

For `OCCN(CCO)c1nc(N2CCCCC2)c2nc(N(CCO)CCO)nc(N3CCCCC3)c2n1` [dipyridamole, reference compound], the EC50 [3] was greater than 512 µg/mL and the ED50 [2] was greater than 100 mg/kg.

`Cc1[nH]c(=O)c(C#N)cc1-c1ccncc1` [milrinone, reference compound] showed a change in vivo at 3 mg/kg ([1]; read-out: Maximum Percentage Change Right Ventricular Contractile Force (RVCF)) of 52%.
